# PubChem BioAssay (NCI)
#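 Assay format: 96-well plates, 48-hour exposure. At the GI50, growth is halved. The concentration for full growth arrest is given as TGI.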
# Assays:
# Test in all cases: NCI anticancer screen, dose series, 48 h
# A498 renal = system: A498 renal
# CCRF-CEM leukemia = system: CCRF-CEM leukemia
# DU-145 prostate = system: DU-145 prostate
# HOP-92 NSCLC = system: HOP-92 NSCLC
# HS 578T breast = system: HS 578T breast
# K-562 leukemia = system: K-562 leukemia
# RXF 393 renal = system: RXF 393 renal
# SNB-75 CNS = system: SNB-75 CNS
# SR leukemia = system: SR leukemia
# UO-31 renal = system: UO-31 renal
# 786-0 renal = system: 786-0 renal
# A549 NSCLC = system: A549 NSCLC
# ACHN renal = system: ACHN renal
# BT-549 breast = system: BT-549 breast
# CAKI-1 renal = system: CAKI-1 renal
# COLO 205 colon = system: COLO 205 colon
# HCC-2998 colon = system: HCC-2998 colon
# HCT-116 colon = system: HCT-116 colon
# HL-60(TB) leukemia = system: HL-60(TB) leukemia
# HOP-62 NSCLC = system: HOP-62 NSCLC
# HT29 colon = system: HT29 colon
# KM12 colon = system: KM12 colon
# LOX IMVI melanoma = system: LOX IMVI melanoma
# M14 melanoma = system: M14 melanoma
# MDA-MB-231 breast = system: MDA-MB-231 breast
# MDA-MB-435 = system: MDA-MB-435
# MOLT-4 leukemia = system: MOLT-4 leukemia
# NCI-H460 lung = system: NCI-H460 lung
# NCI-H522 lung = system: NCI-H522 lung
# NCI/ADR-RES ovarian = system: NCI/ADR-RES ovarian
# OVCAR-3 ovarian = system: OVCAR-3 ovarian
# OVCAR-4 ovarian = system: OVCAR-4 ovarian
# OVCAR-5 ovarian = system: OVCAR-5 ovarian
# OVCAR-8 ovarian = system: OVCAR-8 ovarian
# PC-3 prostate = system: PC-3 prostate
# RPMI-8226 leukemia = system: RPMI-8226 leukemia
# SF-268 CNS = system: SF-268 CNS
# SF-295 CNS = system: SF-295 CNS
# SF-539 CNS = system: SF-539 CNS
# SK-MEL-2 melanoma = system: SK-MEL-2 melanoma
# SK-MEL-28 melanoma = system: SK-MEL-28 melanoma
# SK-OV-3 ovarian = system: SK-OV-3 ovarian
# SN12C renal = system: SN12C renal
# SNB-19 CNS = system: SNB-19 CNS
# SW-620 colon = system: SW-620 colon
# U251 CNS = system: U251 CNS
# UACC-257 melanoma = system: UACC-257 melanoma
# UACC-62 melanoma = system: UACC-62 melanoma
smiles,measurement,setting,value
CCOC(=O)c1sc(-c2ccc(OS(=O)(=O)c3ccccc3[N+](=O)[O-])c(C=O)c2)nc1C,GI50,A498 renal,532 nM
same,TGI,A498 renal,7570 nM
same,GI50,CCRF-CEM leukemia,1830 nM
same,TGI,CCRF-CEM leukemia,4490 nM
same,GI50,DU-145 prostate,3240 nM
same,TGI,DU-145 prostate,> 100000 nM
same,GI50,HOP-92 NSCLC,1920 nM
same,TGI,HOP-92 NSCLC,5500 nM
same,GI50,HS 578T breast,2990 nM
same,TGI,HS 578T breast,> 100000 nM
same,GI50,K-562 leukemia,1610 nM
same,TGI,K-562 leukemia,> 100000 nM
same,GI50,RXF 393 renal,1620 nM
same,TGI,RXF 393 renal,5770 nM
same,GI50,SNB-75 CNS,1370 nM
same,TGI,SNB-75 CNS,8440 nM
same,GI50,SR leukemia,1960 nM
same,TGI,SR leukemia,> 100000 nM
same,GI50,UO-31 renal,2360 nM
same,TGI,UO-31 renal,> 100000 nM
O=C(/C=C/c1ccccc1)C(Br)C(Br)c1ccccc1 (centres undefined),GI50,786-0 renal,1910 nM
same,TGI,786-0 renal,4310 nM
same,GI50,A498 renal,1900 nM
same,TGI,A498 renal,5680 nM
same,GI50,A549 NSCLC,2790 nM
same,TGI,A549 NSCLC,9300 nM
same,GI50,ACHN renal,1250 nM
same,TGI,ACHN renal,2570 nM
same,GI50,BT-549 breast,1860 nM
same,TGI,BT-549 breast,3390 nM
same,GI50,CAKI-1 renal,1240 nM
same,TGI,CAKI-1 renal,2600 nM
same,GI50,CCRF-CEM leukemia,308 nM
same,TGI,CCRF-CEM leukemia,1200 nM
same,GI50,COLO 205 colon,1540 nM
same,TGI,COLO 205 colon,3140 nM
same,GI50,DU-145 prostate,1640 nM
same,TGI,DU-145 prostate,3240 nM
same,GI50,HCC-2998 colon,1900 nM
same,TGI,HCC-2998 colon,3630 nM
same,GI50,HCT-116 colon,200 nM
same,TGI,HCT-116 colon,430 nM
same,GI50,HL-60(TB) leukemia,1340 nM
same,TGI,HL-60(TB) leukemia,3580 nM
same,GI50,HOP-62 NSCLC,4060 nM
same,TGI,HOP-62 NSCLC,14900 nM
same,GI50,HS 578T breast,2360 nM
same,TGI,HS 578T breast,7700 nM
same,GI50,HT29 colon,1040 nM
same,TGI,HT29 colon,2480 nM
same,GI50,K-562 leukemia,303 nM
same,TGI,K-562 leukemia,1250 nM
same,GI50,KM12 colon,2070 nM
same,TGI,KM12 colon,4380 nM
same,GI50,LOX IMVI melanoma,1520 nM
same,TGI,LOX IMVI melanoma,2910 nM
same,GI50,M14 melanoma,2020 nM
same,TGI,M14 melanoma,4900 nM
same,GI50,MDA-MB-231 breast,1730 nM
same,TGI,MDA-MB-231 breast,3510 nM
same,GI50,MDA-MB-435,1490 nM
same,TGI,MDA-MB-435,3080 nM
same,GI50,MOLT-4 leukemia,602 nM
same,TGI,MOLT-4 leukemia,3000 nM
same,GI50,NCI-H460 lung,2370 nM
same,TGI,NCI-H460 lung,5970 nM
same,GI50,NCI-H522 lung,1040 nM
same,TGI,NCI-H522 lung,2310 nM
same,GI50,NCI/ADR-RES ovarian,3370 nM
same,TGI,NCI/ADR-RES ovarian,19000 nM
same,GI50,OVCAR-3 ovarian,1170 nM
same,TGI,OVCAR-3 ovarian,2450 nM
same,GI50,OVCAR-4 ovarian,1730 nM
same,TGI,OVCAR-4 ovarian,3670 nM
same,GI50,OVCAR-5 ovarian,1670 nM
same,TGI,OVCAR-5 ovarian,3390 nM
same,GI50,OVCAR-8 ovarian,2040 nM
same,TGI,OVCAR-8 ovarian,6380 nM
same,GI50,PC-3 prostate,2690 nM
same,TGI,PC-3 prostate,8690 nM
same,GI50,RPMI-8226 leukemia,317 nM
same,TGI,RPMI-8226 leukemia,909 nM
same,GI50,RXF 393 renal,1520 nM
same,TGI,RXF 393 renal,3000 nM
same,GI50,SF-268 CNS,2160 nM
same,TGI,SF-268 CNS,5680 nM
same,GI50,SF-295 CNS,2950 nM
same,TGI,SF-295 CNS,10500 nM
same,GI50,SF-539 CNS,1870 nM
same,TGI,SF-539 CNS,3860 nM
same,GI50,SK-MEL-2 melanoma,1820 nM
same,TGI,SK-MEL-2 melanoma,3600 nM
same,GI50,SK-MEL-28 melanoma,2040 nM
same,TGI,SK-MEL-28 melanoma,4660 nM
same,GI50,SK-OV-3 ovarian,3660 nM
same,TGI,SK-OV-3 ovarian,13300 nM
same,GI50,SN12C renal,2000 nM
same,TGI,SN12C renal,4650 nM
same,GI50,SNB-19 CNS,4720 nM
same,TGI,SNB-19 CNS,17700 nM
same,GI50,SNB-75 CNS,3060 nM
same,TGI,SNB-75 CNS,17500 nM
same,GI50,SR leukemia,455 nM
same,TGI,SR leukemia,2590 nM
same,GI50,SW-620 colon,402 nM
same,TGI,SW-620 colon,1590 nM
same,GI50,U251 CNS,1680 nM
same,TGI,U251 CNS,3810 nM
same,GI50,UACC-257 melanoma,1590 nM
same,TGI,UACC-257 melanoma,3660 nM
same,GI50,UACC-62 melanoma,1640 nM
same,TGI,UACC-62 melanoma,3290 nM
same,GI50,UO-31 renal,1190 nM
same,TGI,UO-31 renal,2480 nM
